We go through 13 compounds from article PMC3638464, “The transcriptional regulator CprK detects chlorination by combining direct and indirect readout mechanisms” (Philosophical Transactions of the Royal Society B: …, 2013).

For data set [1] the following is noted: assigned value, source not stated; cited from earlier work.
Data set [2] concerns the target CprK (Desulfitobacterium hafniense, UniProt B8FW11, C200S). In words: cell-based. To be noted: for n (Hill coefficient) / apparent Kd: in vivo, Hill fit; for n (Hill coefficient) / increase in fluorescence levels (in words): CprK C200S; for increase in fluorescence levels (in words): in vivo reporter; for apparent Kd: E. coli JM109 DE3, pGFPUV-DB7 + CprK C200S, effector concentration at half Fmax. Type of data set: cell-based. The text has this: Previous studies have shown that OCPA-dependent transcriptional activation by CprK can be monitored in Escherichia coli. To avoid any effects coupled to the redox state of the cell, we used a CprK C200S mutant as the basis for all our studies (referred to hereafter as CprK), as it was previously shown that oxidative disulfide bond formation involving C200 inactivates the regulator [23]. A region comprising 123 nucleotides of the upstream dehalobox promotor region of CprA1, containing CprK binding element dehalobox 7 (DB7), was cloned into pGFPUV in order to create a novel in vivo reporter system that makes use of an optimized variant of the green fluorescent protein (GFPUV) from Aequorea victoria. […] No significant increase in fluorescence levels could be detected in the presence of OCPA or similar compounds. […] By contrast, addition of 0.6 μM OCPA to the media leads to a nearly 10-fold increase in fluorescence levels, indicating CprK-mediated, OCPA-dependent transcriptional activation of the GFPUV gene occurs within the E. coli host. […] Our apparent Kd is the binding constant calculated as the concentration at which effector induces half Fmax (maximum fluorescence). […] In contrast to the direct measurement of formation of the CprK : OCPA complex for the in vitro experiment, the in vivo data probably report on the formation of the (CprK : OCPA : dehalobox : RNA polymerase) quaternary complex. […] It appears that under the conditions used for the pGFPUV-DB7-based system, the apparent Kd for OCPA is approximately 100-fold smaller than the established […] Kd values. […] It is important to keep in mind that transport processes could affect the intracellular OCPA concentrations across the membrane, although it would seem logical to assume this would affect OCPA and OCPA-like components in a similar manner. To confirm the apparent Kd value observed reflects inherent CprK affinity for the effector molecule, we measured the increase in fluorescence levels for a range of aromatic compounds.
Overnight culture (150 μl) was plated onto 96-well optical bottom plates (Nunc). OCPA-related compounds (table 3) were then added to various end concentrations, and the plates placed on a rotary shaker at 37°C for 3 h. GFP fluorescence levels were measured using a Synergy HT microplate reader (BioTek) using a 400 nm, 30 nm bandpass excitation filter and a 508 nm, 20 nm bandpass emission filter. Data were collected using Gen5 v. 1.05 (Biotek) software. Fluorescence was normalized against cell density and measured by absorbance at 600 nm. The fluorescence ratio was plotted against effector concentration, and apparent Kd of binding was calculated using nonlinear curve fitting to a Hill plot.

The subject of another data set is CprK K133L. The data set can be described thus: In vivo GFPUV-DB7 reporter assay, K133L CprK mutant. Type of data set: cell-based, Desulfitobacterium hafniense. The procedure: (§1) Table 1 and figure 3 show the dependence of fluorescence levels on OCPA concentrations for Y76F, G85A, G85P and K133L CprK mutants. […] Compared with the apparent Kd of WT CprK (0.019 ± 0.002 μM) for OCPA, the Y76F mutant has an approximately 500-fold decreased affinity for OCPA. The G85P mutation leads to an even more dramatic 4500-fold decrease, but this is probably not only a consequence of removal of the backbone NH hydrogen bond, but also because of the increased size and restricted conformational freedom of the proline side chain. […] While mutations at position 76 or 85 retain some activity, mutation at position 133 leads to a complete loss of transcriptional activation response. This clearly establishes K133 as the key contributor to the polar network established with the phenol moiety.
(§2) Overnight culture (150 μl) was plated onto 96-well optical bottom plates (Nunc). […] GFP fluorescence levels were measured using a Synergy HT microplate reader (BioTek) using a 400 nm, 30 nm bandpass excitation filter and a 508 nm, 20 nm bandpass emission filter. […] Fluorescence was normalized against cell density and measured by absorbance at 600 nm. The fluorescence ratio was plotted against effector concentration, and apparent Kd of binding was calculated using nonlinear curve fitting to a Hill plot.
(In general: A reporter such as luciferase makes a cellular process visible.)

In the next data set the target is CprK G85P (Desulfitobacterium hafniense, UniProt B8FW11, C200S/G85P). In words: In vivo GFPUV-DB7 reporter assay, G85P CprK mutant. Type of data set: cell-based. As for the experimental part:
as §1, §2

The target in another data set is CprK G85A (Desulfitobacterium hafniense, UniProt B8FW11, C200S/G85A). In words: In vivo GFPUV-DB7 reporter assay, G85A CprK mutant. Type of data set: cell-based. The procedure:
as §1, §2

For data set [3], the system named is CprK Y76F. On the set-up: method as in PMID 16803881. To be noted: previous study; cited from earlier work.
Data set [4] relates to CprK. Particulars: cited from earlier work.
Data set [5] addresses CprK Y76F (Desulfitobacterium hafniense, UniProt B8FW11, C200S/Y76F). In words: In vivo GFPUV-DB7 reporter assay, Y76F CprK mutant. The class given is cell-based. The procedure: as §1, §2

Chain of CprK (Desulfitobacterium hafniense, UniProt B8FW11, C200S) (B8FW11 entry or part of it C200S): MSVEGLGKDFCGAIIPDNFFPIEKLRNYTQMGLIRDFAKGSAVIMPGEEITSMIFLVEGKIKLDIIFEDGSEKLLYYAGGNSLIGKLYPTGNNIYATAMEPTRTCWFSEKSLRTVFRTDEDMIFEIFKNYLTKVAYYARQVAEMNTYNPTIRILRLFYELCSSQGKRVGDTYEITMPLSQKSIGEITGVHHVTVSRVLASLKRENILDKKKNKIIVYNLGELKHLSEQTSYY
Chain of CprK Y76F (Desulfitobacterium hafniense, UniProt B8FW11, C200S/Y76F) (B8FW11 entry or part of it Y76F/C200S): as the sequence (B8FW11 entry or part of it C200S) above, with Y76F counted along it
Chain of CprK G85A (B8FW11 entry or part of it G85A/C200S): as the sequence (B8FW11 entry or part of it C200S) above, with G85A counted along it
Chain of CprK G85P (B8FW11 entry or part of it G85P/C200S): as the sequence (B8FW11 entry or part of it C200S) above, with G85P counted along it

As for `O=[N+]([O-])c1ccc(O)c(Br)c1` [2-bromo-4-nitrophenol], the “pKa value of R1 (phenol –OH)” value in data set [1] was “–OH (5.5)”. Further, the “n (Hill coefficient)” value at CprK [2] is reported as 2.1 ± 0.1.

Take `Nc1ccc([N+](=O)[O-])cc1Cl` [2-chloro-4-nitroaniline]: the “increase in fluorescence levels (in words)” value at CprK [2] is on record as “No increase”. Also, the “apparent Kd” value on CprK [2] (3 h) is on record as “no binding”.

Regarding `O=[N+]([O-])c1ccc(O)c(Cl)c1` [2-chloro-4-nitrophenol], the “n (Hill coefficient)” value at CprK [2] was determined as 1.7 ± 0.2.

Consider `O=[N+]([O-])c1ccc(O)c(F)c1` [2-fluoro-4-nitrophenol], for which the “pKa value of R1 (phenol –OH)” value in data set [1] is given as “–OH (5.7)”. Besides, the “n (Hill coefficient)” value at CprK [2] was found to be 4.7 ± 0.6.

For the compound `Cc1cc([N+](=O)[O-])ccc1N` [2-methyl-4-nitroaniline], the “apparent Kd” value at CprK [2] (3 h) is “no binding”.

Take `Cc1cc([N+](=O)[O-])ccc1O` [2-methyl-4-nitrophenol]: the “pKa value of R1 (phenol –OH)” value in data set [1] is listed as “–OH (7.4)”. For the same compound, the “difference between o-methyl-p-nitrophenol and p-nitrophenol (apparent Kd)” value at CprK [2] (apparent in vivo Kd) is listed as “approximately sevenfold”. Moreover, the “n (Hill coefficient)” value on CprK [2] turned out to be 1.8 ± 0.1.

Take `O=C(O)Cc1ccc(O)c(Br)c1` [3-bromo-4-hydroxyphenylacetic acid]: the “pKa value of R1 (phenol –OH)” value in data set [1] is on record as “–OH (8.5)”. Besides, on CprK [2], the “n (Hill coefficient)” value is listed as 3.2 ± 0.5.

In the case of `O=C(O)Cc1cccc(Cl)c1` [3-chloro-phenylacetic acid], the “increase in fluorescence levels (in words)” value at CprK [2] is on record as “No increase”. Besides, at CprK [2] (3 h), the “apparent Kd” value is “no binding”.

As to `O=C(O)Cc1ccc(O)c(F)c1` [3-fluoro-4-hydroxyphenylacetic acid], the “pKa value of R1 (phenol –OH)” value in data set [1] was “–OH (8.8)”. For the same compound, the “n (Hill coefficient)” value at CprK [2] is 1.8 ± 0.2.

On to `Nc1ccc([N+](=O)[O-])cc1` [4-nitroaniline], for which, at CprK [2] (3 h), the “apparent Kd” value is “no binding”.

In the case of `O=[N+]([O-])c1ccc(O)cc1` [4-nitrophenol], the “pKa value of R1 (phenol –OH)” value in data set [1] is given as “–OH (7.2)”. The “n (Hill coefficient)” value at CprK [2] was 2.8 ± 0.2.

Regarding `O=C(O)Cc1ccc(O)cc1` [HPA, 4-hydroxyphenylacetic acid], the “pKa value of R1 (phenol –OH)” value in data set [1] is “–OH (10.2)”. Further, the “n (Hill coefficient)” value on CprK [2] was 2.1 ± 0.2.

A word on the Kd: it is the equilibrium constant for the complex coming apart. Regarding `O=C(O)Cc1ccc(O)c(Cl)c1` [OCPA, 3-chloro-4-hydroxyphenylacetic acid], the “transcriptional activation response (in words)” value with CprK K133L was “complete loss”. In the data set on CprK K133L (in vivo), the “Kd (apparent)” value was “no response”. The Kd on CprK G85P is 86.7 ± 5.8 µM; at CprK G85A, 1.03 ± 0.06 µM; at CprK [4] (previously reported in vitro), 0.8 to 3.5 µM; at CprK Y76F [5] it was 10.2 ± 0.9 µM. Further, the “n (Hill coefficient)” value at CprK G85P (in vivo, G85P mutant) is listed as 1.9 ± 0.3; at CprK G85A (in vivo, G85A mutant), 1.5 ± 0.1; on CprK [2] it was 2.0 ± 0.2; on CprK Y76F [5] (in vivo, Y76F mutant), 1.6 ± 0.1. The “pKa value of R1 (phenol –OH)” value in data set [1] was “–OH (8.5)”. The “decrease in the Kd caused by the Y76F mutation” value in the data set with CprK Y76F [3] is listed as “approximately 10 fold”. Besides, at CprK [2] (3 h, read-out: increase in fluorescence levels), the fold induction at 0.6 µM was around 10. Besides, the “apparent Kd smaller than established Kd values” at CprK [2] (pGFPUV-DB7 system vs earlier Kd values) is “approximately 100 fold”. For the same compound, the “increase of CprK affinity in the presence of a DNA promoter fragment” value in the data set with CprK [4] was “approximately 10 fold”. The “difference in affinity between OCPA and HPA” value with CprK [4] (estimated from indirect in vitro measurements) is recorded as ~10^4.
